From patent publication US11484579B2, “Vitamins and alpha keto acid compositions for use in a treatment program for chronic kidney disease patients” (priority 2017, dated 2022)

Experiment: Certificate of analysis: solubility
Type: physicochemical
Details: batch SCP-PAMA-03; specification: Soluble in water

SMILES: O=C(Cc1ccccc1)C(=O)[O][Mg][O]C(=O)C(=O)Cc1ccccc1 [Alpha keto phenylalanine magnesium]
- Solubility: Soluble in water
